# Tests used:
# [1] = test system: Tetranychus urticae Koch; experiment: Mite ovicide/larvicide (MIOVL) test; format: in vivo; conditions: eggs/immature mites on cowpea leaves sprayed with 1000 ppm solution; examined nine days following treatment; effect larvicidal (L)
# Protocol: (§1) The remaining examples relate to the pesticidal use of compounds of this invention. In all these examples a stock solution for the compounds was prepared at 3000 ppm by dissolving 0.3 grams of the compound to be tested in 10 mL of acetone and adding 90 mL of distilled water plus four drops of ethoxylated sorbitan monolaurate, or a similar suitable wetting agent. For each example that follows, this stock solution was used and the specified dilutions made. All the tests discussed below, which involved treatment with compounds of this invention, were always repeated with controls, in which the active compound was not provided, to permit a comparison upon which the percent control was calculated. One day before treatment, a “figure 8” configuration of tree tanglefoot was applied to each of two cowpea primary leaves, one from each of two plants in a pot. In each Figure, the circle nearer the stem was designated for the mite ovicide/larvicide test and the circle further from the stem was designated for the mite adulticide test. Groups of adult mites (Tetranychus urticae Koch) were transferred into ovicide circles one day before treatment and the females were allowed to deposit eggs until one hour before treatment when they were removed. Plants were sprayed to run off with a 1000 ppm solution diluted from the 3000 ppm stock solution. […]
# [2] = test system: Tetranychus urticae Koch; experiment: Mite adulticide (MI) test; format: in vivo; conditions: adult mites on cowpea leaves sprayed to run off with 1000 ppm solution; mites transferred one day after treatment, examined five days later
# Protocol: as §1
smiles,measurement,setting,value
"COc1ccc(-c2ccccc2)cc1[N+]([O-])=NC(=O)OC(C)C [Compound 1, 1-Methylethyl 2-(4-methoxy-[1,1′-biphenyl]-3-yl)diazenecarboxylate 2-oxide]",MIOVL (L) percent control,[1],100 % Control
same,MI percent control,[2],100 % Control
same,melting point,,102 to 106 °C
